Laboratory results from patent US12497663B2, “Method of monitoring treatment” (LDN Pharma Limited, priority 2019, dated 2025).

Columns and labels:
[1] = test system: CD3+ cells; experiment: Gene expression in CD3+ cells from CD14-ve PBMCs cultured with naltrexone (Illumina biochips); format: cell-based, human; conditions: 4 h
Method: The RNA was then extracted from the cells using Trizol then isopropanol. The expression of the genes was measured using Illumina platform with biochips surveying the total human genome. […] The ratio of treated:untreated was calculated and the 25% change from untreated considered relevant.

[2] = test system: CD3+/CD8+ cells (killer T-cells); experiment: CD69 expression of PBMCs cultured with LDN or NTX (flow cytometry); format: cell-based; conditions: 48 h
Method: Peripheral-blood mononuclear cells were isolated from whole blood or from the residue product of leukoreduction of whole blood from pathologically healthy donors using Histopaque-1077. The mononuclear fraction was harvested and red blood cell contamination removed by incubation in hypotonic ammonium chloride. Cells were washed in phosphate buffered saline (PBS) and platelet contamination removed by centrifugation at 200 g for 10 min, re-suspended at a concentration of 1×10^6 ml in RPMI-1640 culture medium. […] Peripheral-blood mononuclear cells were washed twice in wash buffer (PBS containing 1% (v/v) FBS and 0.09% (v/v) NaN3), and stained for 30 min at 4° C. with the relevant and stated antibodies for assessment of immune cell profile. Cells were washed in wash buffer and fixed in 4% paraformaldehyde for 20 min at 4° C. Expressions of the surface markers were analysed using a BD Science LSR II Flow Cytometer with dedicated proprietary software.
The activation state of CD3+ cells is indicated by CD69 expression; higher levels of CD69 expression correlate with increased CD3+ activation. CD3+ cells are T cell co-receptors that help to activate both the cytotoxic T cell (CD8+ naive T cells) and also T helper cells (CD4+ naive T cells). […] Thus, when LDN has completed its priming and the gene expressions are as determined in Example 1, the immune system is suitably boosted.

[3] = ratio treated:untreated, 10 nM naltrexone
[4] = ratio treated:untreated, 10 uM naltrexone

O=C1CC[C@@]2(O)[C@H]3Cc4ccc(O)c5c4[C@@]2(CCN3CC2CC2)[C@H]1O5 [NTX, morphinan-6-one,17-(cyclopropylmethyl)-4,5-epoxy-3,14-dihydroxy-(5a)]
ALDH4A1 N/U-score ([1]; 10 uM naltrexone): o (no change)
ASAP1 N/U-score ([1]; 10 uM naltrexone): o (no change)
BCLAF1 N/U-score ([1]; 10 uM naltrexone): o (no change)
BIRC3 N/U-score ([1]; 10 uM naltrexone): o (no change)
CASZ1 N/U-score ([1]; 10 uM naltrexone): o (no change)
CDC42SE2 N/U-score ([1]; 10 uM naltrexone): o (no change)
CDKN2AIP N/U-score ([1]; 10 uM naltrexone): o (no change)
DRAP1 N/U-score ([1]; 10 uM naltrexone): D (reduction)
DYNLL2 N/U-score ([1]; 10 uM naltrexone): o (no change)
EIF2S3 N/U-score ([1]; 10 uM naltrexone): o (no change)
EIF3E N/U-score ([1]; 10 uM naltrexone): o (no change)
EIF3M N/U-score ([1]; 10 uM naltrexone): o (no change)
EIF4B N/U-score ([1]; 10 uM naltrexone): o (no change)
EZR N/U-score ([1]; 10 uM naltrexone): o (no change)
FRG1 N/U-score ([1]; 10 uM naltrexone): o (no change)
H3F3A N/U-score ([1]; 10 uM naltrexone): o (no change)
HIST1H4C N/U-score ([1]; 10 uM naltrexone): o (no change)
HPCAL1 N/U-score ([1]; 10 uM naltrexone): o (no change)
ITGB2 N/U-score ([1]; 10 uM naltrexone): o (no change)
KCTD6 N/U-score ([1]; 10 uM naltrexone): o (no change)
LSM5 N/U-score ([1]; 10 uM naltrexone): o (no change)
MAP4K1 N/U-score ([1]; 10 uM naltrexone): D (reduction)
MORF4L1 N/U-score ([1]; 10 uM naltrexone): o (no change)
MTF1 N/U-score ([1]; 10 uM naltrexone): o (no change)
MYLK N/U-score ([1]; 10 uM naltrexone): o (no change)
NUCB1 N/U-score ([1]; 10 uM naltrexone): o (no change)
OR10A6 N/U-score ([1]; 10 uM naltrexone): o (no change)
PAH N/U-score ([1]; 10 uM naltrexone): o (no change)
PDCD4 N/U-score ([1]; 10 uM naltrexone): o (no change)
PECI N/U-score ([1]; 10 uM naltrexone): o (no change)
PRPF8 N/U-score ([1]; 10 uM naltrexone): o (no change)
PSME2 N/U-score ([1]; 10 uM naltrexone): o (no change)
PVRL2 N/U-score ([1]; 10 uM naltrexone): o (no change)
RASAL3 N/U-score ([1]; 10 uM naltrexone): D (reduction)
S100A6 N/U-score ([1]; 10 uM naltrexone): D (reduction)
SH3BGRL3 N/U-score ([1]; 10 uM naltrexone): o (no change)
SPOCK2 N/U-score ([1]; 10 uM naltrexone): o (no change)
WDR75 N/U-score ([1]; 10 uM naltrexone): o (no change)
YWHAZ N/U-score ([1]; 10 uM naltrexone): D (reduction)
ACTB LDN/UN [1, 3]: 1.560
ALDH4A1 LDN/UN [1, 3]: 1.691
ASAP1 LDN/UN [1, 3]: 0.701
BCLAF1 LDN/UN [1, 3]: 0.653
BIRC3 LDN/UN [1, 3]: 0.703
CASZ1 LDN/UN [1, 3]: 1.775
CDC42SE2 LDN/UN [1, 3]: 0.590
CDKN2AIP LDN/UN [1, 3]: 0.702
DRAP1 LDN/UN [1, 3]: 1.253
DYNLL2 LDN/UN [1, 3]: 0.702
EIF2S3 LDN/UN [1, 3]: 0.702
EIF3E LDN/UN [1, 3]: 0.647
EIF3M LDN/UN [1, 3]: 0.613
EIF4B LDN/UN [1, 3]: 1.576
EZR LDN/UN [1, 3]: 1.563
FRG1 LDN/UN [1, 3]: 0.614
H3F3A LDN/UN [1, 3]: 0.632
HIST1H4C LDN/UN [1, 3]: 0.667
HPCAL1 LDN/UN [1, 3]: 1.515
ITGB2 LDN/UN [1, 3]: 1.528
KCTD6 LDN/UN [1, 3]: 0.700
LSM5 LDN/UN [1, 3]: 0.639
MAP4K1 LDN/UN [1, 3]: 1.294
MORF4L1 LDN/UN [1, 3]: 0.698
MTF1 LDN/UN [1, 3]: 0.676
MYLK LDN/UN [1, 3]: 1.659
NUCB1 LDN/UN [1, 3]: 1.483
OR10A6 LDN/UN [1, 3]: 1.570
PAH LDN/UN [1, 3]: 1.687
PDCD4 LDN/UN [1, 3]: 0.672
PECI LDN/UN [1, 3]: 0.675
PRPF8 LDN/UN [1, 3]: 1.543
PSME2 LDN/UN [1, 3]: 0.700
PVRL2 LDN/UN [1, 3]: 1.483
RASAL3 LDN/UN [1, 3]: 1.365
S100A6 LDN/UN [1, 3]: 1.397
SH3BGRL3 LDN/UN [1, 3]: 1.479
SPOCK2 LDN/UN [1, 3]: 1.487
WDR75 LDN/UN [1, 3]: 0.705
YWHAZ LDN/UN [1, 3]: 1.287
ACTB NTX/UN [1, 4]: 1.241
ALDH4A1 NTX/UN [1, 4]: 1.184
ASAP1 NTX/UN [1, 4]: 0.826
BCLAF1 NTX/UN [1, 4]: 0.800
BIRC3 NTX/UN [1, 4]: 0.918
CASZ1 NTX/UN [1, 4]: 1.130
CDC42SE2 NTX/UN [1, 4]: 0.796
CDKN2AIP NTX/UN [1, 4]: 0.766
DRAP1 NTX/UN [1, 4]: 0.723
DYNLL2 NTX/UN [1, 4]: 0.865
EIF2S3 NTX/UN [1, 4]: 0.756
EIF3E NTX/UN [1, 4]: 0.910
EIF3M NTX/UN [1, 4]: 0.757
EIF4B NTX/UN [1, 4]: 1.123
EZR NTX/UN [1, 4]: 1.079
FRG1 NTX/UN [1, 4]: 0.773
H3F3A NTX/UN [1, 4]: 0.758
HIST1H4C NTX/UN [1, 4]: 0.836
HPCAL1 NTX/UN [1, 4]: 0.849
ITGB2 NTX/UN [1, 4]: 0.942
KCTD6 NTX/UN [1, 4]: 0.774
LSM5 NTX/UN [1, 4]: 0.839
MAP4K1 NTX/UN [1, 4]: 0.726
MORF4L1 NTX/UN [1, 4]: 0.772
MTF1 NTX/UN [1, 4]: 0.771
MYLK NTX/UN [1, 4]: 1.241
NUCB1 NTX/UN [1, 4]: 1.148
OR10A6 NTX/UN [1, 4]: 1.235
PAH NTX/UN [1, 4]: 1.183
PDCD4 NTX/UN [1, 4]: 0.779
PECI NTX/UN [1, 4]: 1.043
PRPF8 NTX/UN [1, 4]: 1.174
PSME2 NTX/UN [1, 4]: 0.877
PVRL2 NTX/UN [1, 4]: 1.102
RASAL3 NTX/UN [1, 4]: 0.713
S100A6 NTX/UN [1, 4]: 0.655
SH3BGRL3 NTX/UN [1, 4]: 1.224
SPOCK2 NTX/UN [1, 4]: 1.194
WDR75 NTX/UN [1, 4]: 0.830
YWHAZ NTX/UN [1, 4]: 0.736
CD69 expression in CD3+/CD8+ cells ([2]; 10 nM naltrexone (LDN)): increased
CD69 expression in CD3+/CD8+ cells ([2]; 10 uM naltrexone (NTX)): did not increase
